Measured values from patent US20260132129A1 (Genesis Therapeutics, Inc., priority 2022, published 2026).

Target: T1, PI3Kα H1047R (T47D cells) (Homo sapiens, UniProt P42336, H1047R)
T1 construct: endogenous in cells; host or cells: T47D cells
Experiment: PI3Kα cellular assay: pAKT HTRF in T47D cells after EGF stimulation
Format: cell-based
Details: for IC50: T47D cells (PI3Kα H1047R), pAKT S473 HTRF
Protocol: SKBR3 or T47D cells are seeded in DMEM containing 10% FBS at 25k cells/well into 96-well cell culture format. Cells are incubated overnight at 37° C. in a 5% CO2 incubator and the following day cell media is aspirated, adherent cells are washed 1× with room temperature PBS prior to serum-free media application. Cells are returned to 37° C. 5% CO2 incubator and incubated a further 16 hrs. Compounds are added to serum starved adherent cells with a top dose of 10,000 nM and 3× multiple dose reductions for a minimum dose of 0.5 nM diluted in DMSO. Cell/compound incubation continues for 1 hr in a 37° C., 5% CO2 incubator prior to 10 minute PIK3CA stimulation with 20 ng/ml EGF. Cells treated with 0.1% DMSO and 20 ng/mL EGF are employed as negative control, cells treated with 10 uM Alpelisib and 20 ng/mL EGF are employed as a positive control. After 10 mins, plates are removed from incubator and cells are lysed with buffer and shaking 45 minutes. […] 384 well plate is left overnight at room temperature before reading HTRF on an Envision plate reader.
ND denotes value not determined with that assay for the specified compound; • for T47D (H1047R) selectivity over SKBR3 (WT): A denotes >20-fold; B denotes 20-fold≥value>5-fold; C denotes ≤5-fold. ND denotes value not determined with that assay for the specified compound; and • for T47D pAKT lipophilic efficiency (LiPE): A denotes >4; B denotes 4≥value>2; C denotes ≤2. ND denotes value not determined with that assay for the specified compound.

[1] = selectivity T47D (H1047R) over SKBR3 (WT), pAKT HTRF
[2] = selectivity of T47D (H1047R) over SKBR3 (WT) pAKT IC50
[3] = 1 hr compound, 20 ng/ml EGF 10 min

T1 sequence (P42336 whole entry H1047R): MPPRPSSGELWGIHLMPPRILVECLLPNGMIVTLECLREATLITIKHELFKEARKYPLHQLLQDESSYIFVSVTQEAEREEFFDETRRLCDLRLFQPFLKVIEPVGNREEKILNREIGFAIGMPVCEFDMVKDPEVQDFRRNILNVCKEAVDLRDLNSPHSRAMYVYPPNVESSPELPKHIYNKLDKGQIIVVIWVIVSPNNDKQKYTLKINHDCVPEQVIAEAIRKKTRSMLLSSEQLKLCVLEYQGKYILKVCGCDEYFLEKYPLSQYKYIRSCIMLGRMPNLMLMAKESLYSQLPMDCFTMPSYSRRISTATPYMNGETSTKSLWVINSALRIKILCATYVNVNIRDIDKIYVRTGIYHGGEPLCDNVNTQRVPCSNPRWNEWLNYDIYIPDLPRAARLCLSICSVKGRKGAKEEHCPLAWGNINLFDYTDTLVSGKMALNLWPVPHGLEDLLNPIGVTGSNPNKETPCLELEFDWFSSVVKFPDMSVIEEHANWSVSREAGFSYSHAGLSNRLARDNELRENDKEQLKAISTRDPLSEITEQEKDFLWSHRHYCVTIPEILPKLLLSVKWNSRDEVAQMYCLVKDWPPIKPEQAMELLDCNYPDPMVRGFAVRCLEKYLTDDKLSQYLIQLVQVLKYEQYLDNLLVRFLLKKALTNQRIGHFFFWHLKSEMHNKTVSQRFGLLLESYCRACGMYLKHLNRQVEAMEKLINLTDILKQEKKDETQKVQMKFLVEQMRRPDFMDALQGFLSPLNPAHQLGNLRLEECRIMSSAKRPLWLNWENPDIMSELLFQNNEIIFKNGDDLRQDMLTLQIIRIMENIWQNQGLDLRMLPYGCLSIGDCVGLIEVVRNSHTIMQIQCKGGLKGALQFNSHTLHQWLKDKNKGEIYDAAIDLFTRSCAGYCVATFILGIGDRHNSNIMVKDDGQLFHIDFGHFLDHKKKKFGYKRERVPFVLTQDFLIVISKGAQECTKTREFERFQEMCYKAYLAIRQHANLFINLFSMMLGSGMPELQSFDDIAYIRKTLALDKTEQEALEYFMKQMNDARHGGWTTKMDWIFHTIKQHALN
T1 sequence (P27986 whole entry partner): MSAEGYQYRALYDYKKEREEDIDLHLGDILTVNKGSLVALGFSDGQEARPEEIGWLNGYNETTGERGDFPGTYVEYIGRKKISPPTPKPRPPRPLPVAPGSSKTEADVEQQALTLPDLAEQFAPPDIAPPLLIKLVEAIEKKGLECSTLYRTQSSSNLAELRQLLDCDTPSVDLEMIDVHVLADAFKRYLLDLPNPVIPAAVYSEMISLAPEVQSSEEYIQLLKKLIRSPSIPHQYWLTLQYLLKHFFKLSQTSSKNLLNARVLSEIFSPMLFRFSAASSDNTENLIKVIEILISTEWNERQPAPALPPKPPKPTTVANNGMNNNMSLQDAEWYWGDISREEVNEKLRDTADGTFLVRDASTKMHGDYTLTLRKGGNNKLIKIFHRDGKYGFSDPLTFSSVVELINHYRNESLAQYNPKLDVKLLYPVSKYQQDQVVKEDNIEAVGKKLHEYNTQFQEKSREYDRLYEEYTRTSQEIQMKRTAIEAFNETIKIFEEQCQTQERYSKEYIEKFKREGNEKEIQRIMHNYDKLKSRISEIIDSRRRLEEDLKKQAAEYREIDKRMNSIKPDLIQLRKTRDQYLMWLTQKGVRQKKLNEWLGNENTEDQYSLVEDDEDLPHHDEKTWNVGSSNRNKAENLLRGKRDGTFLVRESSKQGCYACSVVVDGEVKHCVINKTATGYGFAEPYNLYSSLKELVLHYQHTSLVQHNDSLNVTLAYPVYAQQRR

| T47D pAKT S473 HTRF IC50 (H1047R): T47D (H1047R) selectivity over SKBR3 (WT) [1] | IC50 (EGF stimulation) | T47D pAKT S473 HTRF IC50 (H1047R): T47D (H1047R) selectivity over SKBR3 (WT) [2] | IC50 [3] | Compound |
| --- | --- | --- | --- | --- |
| C (C denotes ≤5-fold) |  |  |  | Cc1cc([C@@H](C)Nc2ccccc2C(=O)O)c2nc(C)cc(=O)n2c1 [Compound 178] |
|  | > 2000 nM | C (C denotes ≤5-fold) |  | CC(=O)Nc1nn(C)c2ccc(-c3cc(=O)n4cc(C)cc([C@@H](C)Nc5ccccc5C(=O)O)c4n3)cc12 [Compound 793] |
|  | 100 to 500 nM | A (A denotes >20-fold) |  | Cc1cc([C@@H](C)Nc2ccccc2S(N)(=O)=O)c2nc(-c3ccc4c(c3)c(C)nn4C3CC3)c(C)c(=O)n2c1 [Compound 961] |
|  |  | C (C denotes ≤5-fold) |  | Cc1cc(C(C)Nc2ccccc2)c2nc(N3Cc4ccccc4C3)cc(=O)n2c1 (centres unmarked) [Compound 647] |
| C (C denotes ≤5-fold) |  |  | > 2000 nM | Cc1cc(C(C)Nc2ccccc2C(=O)O)c2nc(C3CCC(NS(C)(=O)=O)CC3)c(C)c(=O)n2c1 (centres unmarked) [Compound 544] |
| C (C denotes ≤5-fold) |  |  | > 2000 nM | Cc1cc([C@@H](C)Nc2cccc(C)c2C(=O)O)c2nc(C3CCOCC3)cc(=O)n2c1 [Compound 330] |
|  | < 100 nM | A (A denotes >20-fold) |  | Cc1cc([C@@H](C)Nc2ccccc2C(=O)O)c2nc(-c3cnc4c(c3)c(C)cn4C)c(C)c(=O)n2c1 [Compound 1050] |
|  |  | C (C denotes ≤5-fold) |  | Cc1cc([C@@H](C)Nc2ccccc2-c2ccnnc2)c2nc(N3CC(C)OC(C)C3)cc(=O)n2c1 (some centres unmarked) [Compound 699] |
| A (A denotes >20-fold) | < 100 nM |  |  | Cc1cc([C@H](C)Nc2ccccc2S(N)(=O)=O)c2nc([C@@H]3CCCOC3)c(C)c(=O)n2c1 [Compound 1285] |
|  | 100 to 500 nM | A (A denotes >20-fold) |  | Cc1cc(C(C)Nc2ccccc2C(=O)O)c2nc(-c3ccc4c(c3)c(C3CC3)nn4C)cc(=O)n2c1 (centres unmarked) [Compound 736] |
| A (A denotes >20-fold) |  |  | < 100 nM | Cc1cc(C(C)Nc2ccccc2C(=O)O)c2nc(-c3ccc4c(c3)c(N(C)C)nn4C)cc(=O)n2c1 (centres unmarked) [Compound 457] |
| C (C denotes ≤5-fold) |  |  | > 2000 nM | Cc1cc([C@@H](C)Nc2ccccc2C(=O)O)c2nc(-c3cc[nH]c(=O)c3)cc(=O)n2c1 [Compound 461] |
|  | < 100 nM | A (A denotes >20-fold) |  | Cc1cc([C@@H](C)Nc2ccccc2C(=O)O)c2nc(-c3ccc(Cl)cc3)c(C)c(=O)n2c1 (single isomer, unassigned) [Compound 963] |
|  | < 100 nM | A (A denotes >20-fold) |  | Cc1cc([C@@H](C)Nc2ccccc2C(=O)O)c2nc(-c3ccc4c(c3)CC(F)(F)C4)c(C)c(=O)n2c1 [Compound 853] |
|  | > 2000 nM | C (C denotes ≤5-fold) |  | Cc1cc(C(C)Nc2ccccc2C(=O)O)c2nc(-c3ccc4c(c3)c(=O)[nH]n4C)cc(=O)n2c1 (centres unmarked) [Compound 790] |
| A (A denotes >20-fold) |  |  | 100 to 500 nM | Cc1cc(C(C)Nc2ccccc2C(=O)O)c2nc(C3CCC(C)(C)CC3)cc(=O)n2c1 (centres unmarked) [Compound 622] |
| C (C denotes ≤5-fold) | > 2000 nM |  |  | Cc1cc(C(C)Nc2ccccc2C(=O)O)c2nc(-c3ccc(C4CCNCC4)nc3)c(C)c(=O)n2c1 (centres unmarked) [Compound 1302] |
| B (B denotes 20-fold≥value>5-fold) |  |  | 500 to 2000 nM | COc1cc(-c2cc(=O)n3cc(C)cc(C(C)Nc4ccccc4C(=O)O)c3n2)cc(S(N)(=O)=O)c1 (centres unmarked) [Compound 355] |
| C (C denotes ≤5-fold) |  |  | > 2000 nM | Cc1cc([C@@H](C)Nc2ccccc2C(N)=O)c2nc(N3CCOCC3)cc(=O)n2c1 [Compound 146] |
